Where two headings read alike, the source gives them in different places.
Legend:
[1] = test system: 6 Hz (32 mA) seizures, mice; assay: Psychomotor 6 Hz (32 mA) seizure model; format: in vivo; conditions: for responders at 100 mg/kg / ED50: Mus musculus, ip; for responders at 100 mg/kg: 0.5 h, read-out: 6 Hz (32 mA) test, number of mice protected / number of mice tested (converted); for ED50: at TPE (0.5 h; LTG 1.0 h), 95% confidence intervals in parentheses
Cav2.2 channel = biological target: T1, Cav2.2 channel (Rattus norvegicus, UniProt Q02294); assay: Radioligand binding, Cav2.2 channel; design: dose or concentration left out as unconfirmed; conditions: rat cerebral cortex; read-out: % Inhibition of Control Specific Binding, Cav2.2 Channel (Antagonist Radioligand)
T1 construct: tissue Eurofins (Poitiers, France), contract assay; host or cells: rat cerebral cortex (own knowledge of the vendor's assay)
Protocol: (§1) Taking into consideration the structural similarities of molecules described in the current manuscript with their chemical prototypes AS-1 and DK-1, the binding studies toward aforementioned molecular targets were performed commercially for several active substances from each subseries (3, 4, 21, 24, 25, 27, 29, and 30). Furthermore, we also tested two other and well-known targets for AEDs, namely, the Cav2.2 (N-type) calcium channel and gamma-aminobutyric acid (GABA)-A receptor. With the aim of excluding potentially dangerous proarrhythmic properties for each compound, their interaction with the potassium (hERG) channel was also tested.
(§2) Binding studies were carried out commercially in Eurofines Laboratories (Poitiers, France). The functional assays were performed in Eurofins Panlabs Discovery Services Taiwan, Ltd. (New Taipei City, Taiwan). All procedures are described elsewhere (for details, see Table S4 in Supplementary Materials).
(§3) Binding studies were carried out commercially in Eurofines Laboratories (Poitiers, France). The
(§4) functional assays were performed in Eurofins Panlabs Discovery Services Taiwan, Ltd. (New Taipei
(§5) City, Taiwan). All procedures are described elsewhere (Table S4).
(§6) Table S4. In vitro binding and functional assays.
(§7) GABA-A receptor (α1,β2,γ2)
(§8) Potassium channel (hERG) 14
(§9) Cav1.2 (h) calcium ion channel cell based antagonist calcium flux assay 16,17

Potassium channel (hERG) = biological target: T2, Potassium channel (hERG) (Homo sapiens, UniProt Q12809); assay: Binding, potassium channel (hERG); conditions: 100 µM; human recombinant (HEK-293 cells)
T2 construct: Eurofins (Poitiers, France), contract assay
Protocol: as §1, §2, §3, §4, §5, §6, §7, §8, §9

MES seizures, mice [2] = assay: Maximal electroshock (MES) seizure test; format: in vivo; conditions: Mus musculus, ip; for responders at 100 mg/kg: 0.5 h, i.p.; for ED50: at TPE (0.5 h; LTG 1.0 h), 95% confidence intervals in parentheses
[3] = biological target: T3, GABA-A receptor (α1,β2,γ2) (Homo sapiens, UniProt P14867+P47870); assay: Radioligand binding, GABA-A receptor; design: dose or concentration left out as unconfirmed; conditions: rat cerebral cortex; read-out: % Inhibition of Control Specific Binding, GABA-A Receptor (α1,β2,γ2) (Agonist Radioligand)
T3 construct: Eurofins (Poitiers, France), contract assay
T3 sequence (P14867 28-456): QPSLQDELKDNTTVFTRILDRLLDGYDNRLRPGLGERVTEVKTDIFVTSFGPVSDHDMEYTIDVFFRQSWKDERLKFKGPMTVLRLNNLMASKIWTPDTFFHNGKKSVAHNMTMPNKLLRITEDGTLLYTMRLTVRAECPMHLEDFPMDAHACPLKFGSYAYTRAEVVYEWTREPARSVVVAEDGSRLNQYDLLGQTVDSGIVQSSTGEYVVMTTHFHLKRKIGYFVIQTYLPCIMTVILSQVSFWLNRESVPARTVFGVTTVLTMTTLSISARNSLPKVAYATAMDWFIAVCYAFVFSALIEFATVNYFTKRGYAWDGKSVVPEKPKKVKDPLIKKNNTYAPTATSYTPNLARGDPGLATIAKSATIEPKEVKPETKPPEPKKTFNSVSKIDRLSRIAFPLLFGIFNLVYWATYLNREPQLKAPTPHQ
T3 sequence (P47870 25-512 limits assumed): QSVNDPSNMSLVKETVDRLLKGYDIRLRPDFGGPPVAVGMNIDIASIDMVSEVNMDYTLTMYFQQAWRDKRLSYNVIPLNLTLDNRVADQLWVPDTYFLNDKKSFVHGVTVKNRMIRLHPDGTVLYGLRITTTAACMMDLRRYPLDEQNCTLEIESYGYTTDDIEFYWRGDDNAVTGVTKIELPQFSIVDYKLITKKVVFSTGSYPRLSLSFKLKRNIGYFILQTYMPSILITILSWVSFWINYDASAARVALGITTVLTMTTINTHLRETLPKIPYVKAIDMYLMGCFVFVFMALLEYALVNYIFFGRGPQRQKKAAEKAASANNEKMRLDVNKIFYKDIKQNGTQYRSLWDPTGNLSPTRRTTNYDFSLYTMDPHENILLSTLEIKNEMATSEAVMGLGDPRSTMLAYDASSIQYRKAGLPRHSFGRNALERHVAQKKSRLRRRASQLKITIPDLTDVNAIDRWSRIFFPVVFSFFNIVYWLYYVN
T3 sequence (P18507 40-475 partner): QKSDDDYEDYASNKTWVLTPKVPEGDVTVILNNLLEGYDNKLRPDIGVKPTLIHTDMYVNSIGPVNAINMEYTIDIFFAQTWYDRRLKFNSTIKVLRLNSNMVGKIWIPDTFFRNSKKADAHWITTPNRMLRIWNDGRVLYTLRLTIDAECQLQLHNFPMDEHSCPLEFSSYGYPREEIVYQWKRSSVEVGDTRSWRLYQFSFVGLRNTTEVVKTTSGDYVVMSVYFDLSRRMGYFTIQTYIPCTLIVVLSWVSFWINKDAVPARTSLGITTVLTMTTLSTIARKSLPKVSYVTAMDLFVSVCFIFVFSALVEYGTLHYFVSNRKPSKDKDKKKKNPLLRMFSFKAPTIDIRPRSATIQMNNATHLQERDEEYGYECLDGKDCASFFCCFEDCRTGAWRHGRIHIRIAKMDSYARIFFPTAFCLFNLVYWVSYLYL
Protocol: as §1, §2, §3, §4, §5, §6, §7, §8, §9

[4] = test system: motor coordination of mice; assay: Rotarod test for acute neurological toxicity; conditions: for impairment of motor coordination of mice: doses as high as 300 mg/kg; for Rotarod test, number of mice / number of mice tested: i.p., 100 mg/kg, 0.5 h
[5] = Rotarod test for acute neurological toxicity; conditions: mouse, in vivo, ip
Cav1.2 channel = biological target: T4, Cav1.2 channel (Rattus norvegicus, UniProt P22002); assay: Radioligand binding, Cav1.2 channel; design: inhibition: dose or concentration left out as unconfirmed; conditions: for inhibition: rat cerebral cortex, read-out: % Inhibition of Control Specific Binding, Cav1.2 Channel (Antagonist Radioligand); for binding to voltage-gated calcium channels Cav1.2: concentration of 10 µM
T4 construct: tissue Eurofins (Poitiers, France), contract assay; host or cells: rat cerebral cortex (own knowledge of the vendor's assay)
T4 sequence (P22002 whole entry): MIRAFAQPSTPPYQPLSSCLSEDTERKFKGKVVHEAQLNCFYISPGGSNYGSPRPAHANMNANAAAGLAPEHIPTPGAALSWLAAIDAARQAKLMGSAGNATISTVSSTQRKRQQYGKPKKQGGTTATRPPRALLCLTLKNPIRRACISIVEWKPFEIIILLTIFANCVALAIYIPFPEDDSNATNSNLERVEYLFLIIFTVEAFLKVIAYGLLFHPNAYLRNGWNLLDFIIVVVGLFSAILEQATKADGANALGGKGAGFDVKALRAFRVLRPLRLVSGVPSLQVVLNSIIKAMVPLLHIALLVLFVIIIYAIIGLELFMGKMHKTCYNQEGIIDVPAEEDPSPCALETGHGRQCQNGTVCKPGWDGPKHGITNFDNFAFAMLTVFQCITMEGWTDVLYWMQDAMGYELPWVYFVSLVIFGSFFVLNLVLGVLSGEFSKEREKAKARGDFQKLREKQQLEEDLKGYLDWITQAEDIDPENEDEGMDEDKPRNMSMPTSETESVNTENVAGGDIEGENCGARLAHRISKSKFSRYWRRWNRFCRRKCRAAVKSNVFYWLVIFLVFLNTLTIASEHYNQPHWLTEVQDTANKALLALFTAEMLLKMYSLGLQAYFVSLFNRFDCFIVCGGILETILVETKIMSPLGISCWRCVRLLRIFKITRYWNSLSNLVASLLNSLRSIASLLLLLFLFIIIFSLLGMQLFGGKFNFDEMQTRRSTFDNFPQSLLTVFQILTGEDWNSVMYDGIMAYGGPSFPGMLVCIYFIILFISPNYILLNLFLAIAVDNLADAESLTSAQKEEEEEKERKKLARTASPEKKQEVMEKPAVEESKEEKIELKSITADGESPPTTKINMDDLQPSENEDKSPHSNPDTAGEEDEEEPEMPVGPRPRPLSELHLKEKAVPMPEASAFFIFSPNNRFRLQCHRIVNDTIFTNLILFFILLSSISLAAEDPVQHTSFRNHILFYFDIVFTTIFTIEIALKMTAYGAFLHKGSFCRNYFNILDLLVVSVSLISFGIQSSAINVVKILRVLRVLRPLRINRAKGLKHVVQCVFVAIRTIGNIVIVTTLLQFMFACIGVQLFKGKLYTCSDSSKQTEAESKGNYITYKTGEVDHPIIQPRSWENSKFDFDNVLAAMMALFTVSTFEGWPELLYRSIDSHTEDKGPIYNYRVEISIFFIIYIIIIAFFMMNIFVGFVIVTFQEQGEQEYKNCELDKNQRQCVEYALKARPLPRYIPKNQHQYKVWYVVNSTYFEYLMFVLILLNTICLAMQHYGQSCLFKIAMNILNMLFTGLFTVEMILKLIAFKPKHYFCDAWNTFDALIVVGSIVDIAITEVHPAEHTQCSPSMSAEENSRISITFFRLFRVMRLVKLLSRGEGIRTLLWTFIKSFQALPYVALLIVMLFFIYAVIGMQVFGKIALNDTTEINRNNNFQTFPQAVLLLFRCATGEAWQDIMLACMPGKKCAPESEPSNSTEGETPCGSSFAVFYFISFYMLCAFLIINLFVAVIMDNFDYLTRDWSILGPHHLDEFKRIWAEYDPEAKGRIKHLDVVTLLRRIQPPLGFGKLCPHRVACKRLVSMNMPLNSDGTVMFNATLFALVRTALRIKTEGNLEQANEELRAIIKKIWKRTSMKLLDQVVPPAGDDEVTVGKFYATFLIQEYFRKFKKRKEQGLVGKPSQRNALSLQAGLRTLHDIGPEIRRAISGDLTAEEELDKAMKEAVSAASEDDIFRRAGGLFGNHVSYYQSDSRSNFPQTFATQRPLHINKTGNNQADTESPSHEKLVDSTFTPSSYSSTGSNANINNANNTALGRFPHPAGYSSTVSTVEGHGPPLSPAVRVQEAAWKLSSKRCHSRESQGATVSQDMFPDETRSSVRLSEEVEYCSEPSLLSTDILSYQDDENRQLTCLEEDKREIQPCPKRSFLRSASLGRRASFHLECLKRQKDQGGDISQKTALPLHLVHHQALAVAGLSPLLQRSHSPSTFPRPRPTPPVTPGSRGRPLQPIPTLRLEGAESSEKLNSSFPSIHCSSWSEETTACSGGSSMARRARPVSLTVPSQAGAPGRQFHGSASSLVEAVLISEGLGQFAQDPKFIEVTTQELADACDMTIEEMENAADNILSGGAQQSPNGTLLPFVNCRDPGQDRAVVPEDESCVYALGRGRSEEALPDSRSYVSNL
T4 sequence (P54287 whole entry partner): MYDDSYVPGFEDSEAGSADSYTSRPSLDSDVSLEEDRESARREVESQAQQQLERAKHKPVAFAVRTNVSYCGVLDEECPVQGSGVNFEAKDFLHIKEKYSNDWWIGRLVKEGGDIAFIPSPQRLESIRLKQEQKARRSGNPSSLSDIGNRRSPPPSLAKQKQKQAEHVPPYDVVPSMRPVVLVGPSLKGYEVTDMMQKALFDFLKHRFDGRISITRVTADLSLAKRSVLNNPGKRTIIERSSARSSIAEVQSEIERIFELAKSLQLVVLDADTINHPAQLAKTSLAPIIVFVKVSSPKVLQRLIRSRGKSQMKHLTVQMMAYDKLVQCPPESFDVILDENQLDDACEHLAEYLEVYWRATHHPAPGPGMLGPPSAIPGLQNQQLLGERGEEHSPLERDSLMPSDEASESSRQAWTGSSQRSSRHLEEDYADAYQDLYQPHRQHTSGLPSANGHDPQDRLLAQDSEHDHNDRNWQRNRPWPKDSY
T4 sequence (P54290 25-944 partner limits assumed): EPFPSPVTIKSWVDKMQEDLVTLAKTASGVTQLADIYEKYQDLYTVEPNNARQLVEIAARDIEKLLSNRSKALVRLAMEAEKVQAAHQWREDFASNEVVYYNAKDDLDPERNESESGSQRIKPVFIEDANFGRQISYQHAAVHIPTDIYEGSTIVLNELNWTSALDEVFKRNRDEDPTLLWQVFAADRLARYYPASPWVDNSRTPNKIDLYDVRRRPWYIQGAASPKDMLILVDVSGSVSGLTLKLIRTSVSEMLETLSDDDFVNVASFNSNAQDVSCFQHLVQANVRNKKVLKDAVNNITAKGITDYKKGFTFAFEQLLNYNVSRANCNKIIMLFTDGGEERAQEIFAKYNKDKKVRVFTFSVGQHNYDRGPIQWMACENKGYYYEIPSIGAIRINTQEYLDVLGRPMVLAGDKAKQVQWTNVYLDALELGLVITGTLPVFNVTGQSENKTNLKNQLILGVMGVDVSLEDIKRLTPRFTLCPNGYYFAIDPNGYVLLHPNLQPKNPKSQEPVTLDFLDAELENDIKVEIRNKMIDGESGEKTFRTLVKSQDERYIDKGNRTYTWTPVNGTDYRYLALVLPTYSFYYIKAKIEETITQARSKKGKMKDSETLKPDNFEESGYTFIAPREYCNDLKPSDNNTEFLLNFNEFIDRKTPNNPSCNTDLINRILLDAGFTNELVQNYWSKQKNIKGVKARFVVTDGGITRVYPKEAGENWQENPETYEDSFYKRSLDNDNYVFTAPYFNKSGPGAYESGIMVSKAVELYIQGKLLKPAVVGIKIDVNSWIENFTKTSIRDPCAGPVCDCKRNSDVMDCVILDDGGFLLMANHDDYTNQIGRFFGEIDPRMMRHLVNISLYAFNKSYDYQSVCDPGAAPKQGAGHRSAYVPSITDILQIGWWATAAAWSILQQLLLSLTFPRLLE
T4 sequence (P54290 945-1091 partner limits assumed): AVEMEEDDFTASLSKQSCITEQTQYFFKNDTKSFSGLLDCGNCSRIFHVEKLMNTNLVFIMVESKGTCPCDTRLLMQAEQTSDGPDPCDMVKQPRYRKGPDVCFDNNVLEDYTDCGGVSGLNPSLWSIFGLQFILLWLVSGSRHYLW
Protocol: as §1, §2, §3, §4, §5, §6, §7, §8, §9

Na+ channel (site 2) = assay: Radioligand binding, Na+ channel (site 2); conditions: 10 µM; rat cerebral cortex
Protocol: as §1, §2, §3, §4, §5
(§10) Table S4. In vitro binding and functional assays. […]

[6] = biological target: T5, Cav1.2 (h) calcium ion channel (Homo sapiens, UniProt Q13936); assay: Cav1.2 (h) cell-based antagonist calcium flux assay; conditions: for inhibition at 10 µM: HEK293, human recombinant (HEK-293 cells), read-out: % Inhibition of Control Agonist Response, Cav1.2 (h) calcium flux; for antagonist properties in cell-based flux studies (Cav1.2): 10 µM
T5 construct: host or cells: HEK-293
Protocol: as §2, §3, §4, §5, §10, §9

[7] = Parallel artificial membrane permeability assay (PAMPA)
Protocol: (§11) Passive diffusion was tested in the parallel artificial membrane permeability assay (PAMPA) and expressed as the permeability coefficient (Pe). A highly permeable compound, caffeine (CFN), and a poorly permeable compound, norfloxacin (NFX), were used as the references.
(§12) Precoated PAMPA Plate System Gentest™ was provided by Corning, (Tewksbury, MA, USA).

[8] = Metabolic stability in human liver microsomes; format: in vitro ADME; conditions: 120 min incubation with HLMs
Excerpt: Human liver microsomes (HLMs) were used for metabolic stability determination. Moreover, the most probable phase I reactions and structures of metabolites were proposed according to ion fragment analyses with the in silico support of MetaSite 6.0.1 software. […] On the other hand, an excellent metabolic stability of compound 24 was observed. Less than 4% of this derivative was converted into double-hydroxylated metabolite M1 (Figures S3, S4, and S7, Supplementary Materials). Finally, two monohydroxylated metabolites (M1, M2) were found in the reaction mixture with HLMs and 30, and around 17% of this compound was metabolized (Figures S5–S7, Supplementary Materials).
These assays were performed on human liver microsomes (HLMs), purchased from Sigma-Aldrich (St. Louis, MO, USA), according to [14].

CYP2C9 = CYP2C9 (Homo sapiens, UniProt P11712); assay: Luminescent CYP2C9 P450-Glo assay
CYP3A4 = biological target: T6, CYP3A4 (Homo sapiens, UniProt P08684); assay: Luminescent CYP3A4 P450-Glo assay; format: in vitro ADME; conditions: 1 µM
T6 construct: purchased Promega (Madison, WI, USA)

PTZ seizures, mice = conditions: known AED, background statement; cited from earlier work
[9] = test system: 6 Hz (32 mA) seizures, mice; conditions: known AED, background statement; cited from earlier work
MES seizures, mice [10] = conditions: known AED, background statement; cited from earlier work
in vivo = conditions: mouse, ip
in vitro = conditions: PAMPA
Protocol: as §11, §12

[11] = groups of four, read-out: protection in the MES test
[12] = read-out: MES test, number of mice protected / number of mice tested (converted)

Row | SMILES | responders at 100 mg/kg [1] | ED50 [1] | inhibition (Cav2.2 channel) | % Inhibition of Control Specific Binding, Potassium Channel (hERG) (Potassium channel (hERG)) | responders at 100 mg/kg (MES seizures, mice [2]; [11]) | responders at 100 mg/kg (MES seizures, mice [2]; [12]) | ED50 (MES seizures, mice [2]) | inhibition [3] | Rotarod test, number of mice / number of mice tested [4] | TD50 at 0.5 h [5] | inhibition (Cav1.2 channel) | % Inhibition of Control Specific Binding, Na+ Channel (Site 2) (Antagonist Radioligand) (Na+ channel (site 2)) | melting point | inhibition at 10 µM [6] | other results
1 | O=C(Nc1ccccc1)C(c1ccccc1)N1C(=O)CCC1=O (stereo not drawn) [Compound 3, 2-(2,5-Dioxopyrrolidin-1-yl)-N,2-diphenylacetamide] | 75% | 92.5 mg/kg | 3.6% | 0.8% | ≥ 50% | 50% | > 130 mg/kg | 5.2% | 0/4 | > 300 mg/kg | 9% | 10.8% |  |  | impairment of motor coordination of mice [4]: did not impair motor coordination
2 | O=C(NCc1ccccc1C(F)(F)F)C(c1ccccc1)N1C(=O)CCC1=O (stereo not drawn) [Compound 21, 2-(2,5-Dioxopyrrolidin-1-yl)-2-phenyl-N-(2-(trifluoromethyl)benzyl)acetamide] | 25% |  | 0.2% | 6.3% | ≥ 50% | 50% | 49.6 mg/kg | 1.2% | 0/4 | > 300 mg/kg | 26.6% | 18.8% | 137.7 to 139.1 °C | 27% | effectiveness in the 6 Hz test ([1]; i.p.): not effective; impairment of motor coordination of mice [4]: did not impair motor coordination
3 | O=C(NCc1cccc(OC(F)(F)F)c1)C(c1ccccc1)N1C(=O)CCC1=O (stereo not drawn) [Compound 24, 2-(2,5-Dioxopyrrolidin-1-yl)-2-phenyl-N-(3-(trifluoromethoxy)benzyl)acetamide] | 100% | 43.8 mg/kg | 5.5% | 4.4% | ≥ 50% | 75% | > 130 mg/kg | -0.8% | 0/4 | > 300 mg/kg | 36.5% | 22.3% | 129.6 to 130.4 °C | 38.8% | Papp [7]: 10.9 ± 0.5 ×10⁻⁶ cm/s; compound converted into metabolites / metabolized [8]: Less than 4%; parent compound remained in the reaction mixture [8]: 96.49%; CYP2C9 activity, % of control (CYP2C9; 10 and 25 µM): up to 140 % of control; impairment of motor coordination of mice [4]: did not impair motor coordination; binding to voltage-gated calcium channels Cav1.2 (Cav1.2 channel): moderate binding; effect on CYP3A4 activity (CYP3A4): slightly inhibited CYP3A4 activity; antagonist properties in cell-based flux studies (Cav1.2) [6]: moderate antagonist properties
4 | O=C(NCCc1ccccc1)C(c1ccccc1)N1C(=O)CCC1=O (stereo not drawn) [Compound 25, 2-(2,5-Dioxopyrrolidin-1-yl)-N-phenethyl-2-phenylacetamide] | 75% | 88.9 mg/kg | 2.5% | 4.8% | ≥ 50% | 75% | 87.9 mg/kg | 3.6% | 1/4 | 210 mg/kg | 19% | 14.8% |  |  | acute neurological toxicity (rotarod) ([4]; at doses around or below 200 mg/kg): moderate acute neurological toxicity
5 | O=C(NCCc1cccc(Cl)c1)C(c1ccccc1)N1C(=O)CCC1=O (stereo not drawn) [Compound 27, N-(3-Chlorophenethyl)-2-(2,5-dioxopyrrolidin-1-yl)-2-phenylacetamide] | 75% | 36.3 mg/kg | 3.8% | 2.7% |  | 50% |  | 0.7% | 0/4 | > 300 mg/kg | 38.3% | 20.1% | 137.4 to 138.2 °C | 40% | binding to voltage-gated calcium channels Cav1.2 (Cav1.2 channel): moderate binding; antagonist properties in cell-based flux studies (Cav1.2) [6]: moderate antagonist properties
6 | O=C(NCCc1cccc(C(F)(F)F)c1)C(c1ccccc1)N1C(=O)CCC1=O (stereo not drawn) [Compound 29, 2-(2,5-Dioxopyrrolidin-1-yl)-2-phenyl-N-(3-(trifluoromethyl)phenethyl)acetamide] | 75% | 49.3 mg/kg | -0.6% | 3.4% | 100% | 75% | 55.4 mg/kg | 2.1% | 0/4 | 179 mg/kg | 44.2% | 18.3% | 149.2 to 150.4 °C | 45% | binding to voltage-gated calcium channels Cav1.2 (Cav1.2 channel): moderate binding; antagonist properties in cell-based flux studies (Cav1.2) [6]: moderate antagonist properties
7 | CCC1(C)CC(=O)NC1=O (stereo not drawn) [ETX, ethosuximide] |  |  |  |  |  |  |  |  |  |  |  |  |  |  | activity in the (sc)PTZ model (PTZ seizures, mice): protected mice only in the scPTZ model
8 | COC[C@@H](NC(C)=O)C(=O)NCc1ccccc1 [LCS, lacosamide] |  |  |  |  |  |  |  |  |  |  |  |  |  |  | activity in the 6 Hz (32 mA) model [9]: active; activity in the MES model (MES seizures, mice [10]): active
9 | CC[C@@H](C(N)=O)N1CCCC1=O [LEV, levetiracetam] |  |  |  |  |  |  |  |  |  |  |  |  |  |  | activity in the 6 Hz (32 mA) model [9]: showed efficacy only in the 6 Hz seizure model
10 | Nc1nnc(-c2cccc(Cl)c2Cl)c(N)n1 [LTG, lamotrigine, reference compound] |  | 6.4 mg/kg |  |  |  |  | 3.1 mg/kg |  |  |  |  |  |  |  | TD50 at 0.5 h (in vivo): 48.3 mg/kg
11 | CCn1cc(C(=O)O)c(=O)c2cc(F)c(N3CCNCC3)cc21 [NFX, norfloxacin] |  |  |  |  |  |  |  |  |  |  |  |  |  |  | Papp (in vitro): 0.056 ×10⁻⁶ cm/s
12 | Nc1ccc(S(=O)(=O)Nc2ccnn2-c2ccccc2)cc1 [SE, sulfaphenazole, reference compound] |  |  |  |  |  |  |  |  |  |  |  |  |  |  | effect on CYP2C9 activity (CYP2C9; 1 µM): almost completely blocked CYP2C9 activity

From publication PMC7699745, “The Search for New Anticonvulsants in a Group of (2,5-Dioxopyrrolidin-1-yl)(phenyl)Acetamides with Hybrid Structure—Synthesis and In Vivo/In Vitro Studies” (International Journal of Molecular Sciences, 2020)
